Earlier results, collected in patent US20170266197A1, “METHODS AND COMPOSITIONS FOR TREATING HEPATITIS B VIRUS INFECTIONS” (Indiana University Research and Technology Corporation, priority 2014, published 2017).

Tested on: chronic hepatitis B infection

## alpha interferon
Many patients relapse after treatment is stopped
  patients who show a long term benefit: about 30%
Of the chronic carriers obtaining this therapy
  patients who respond to the treatment: about 40%
Treated patients
  viral disappearance in treated patients: 10-20%
